Measured values taken from ChEMBL document CHEMBL5346867, “A close look into the biological and synthetic aspects of fused pyrazole derivatives” (Eur J Med Chem, 2022).

Assays:
[1] = biological target: Epidermal growth factor receptor (Homo sapiens, UniProt P00533); experiment: Inhibition of EGFR (unknown origin)
HT-29 = experiment: cells; conditions: Homo sapiens, HT-29, 48 h
Description: Anti-proliferative activity against human HT-29 assessed as inhibition of cell growth incubated for 48 hrs by MTT assay

[2] = biological target: T1, Sodium-dependent proline transporter (Homo sapiens) (UniProt Q99884); experiment: Inhibition of human PROT at 0.1 uM relative to control
T1 sequence (whole entry): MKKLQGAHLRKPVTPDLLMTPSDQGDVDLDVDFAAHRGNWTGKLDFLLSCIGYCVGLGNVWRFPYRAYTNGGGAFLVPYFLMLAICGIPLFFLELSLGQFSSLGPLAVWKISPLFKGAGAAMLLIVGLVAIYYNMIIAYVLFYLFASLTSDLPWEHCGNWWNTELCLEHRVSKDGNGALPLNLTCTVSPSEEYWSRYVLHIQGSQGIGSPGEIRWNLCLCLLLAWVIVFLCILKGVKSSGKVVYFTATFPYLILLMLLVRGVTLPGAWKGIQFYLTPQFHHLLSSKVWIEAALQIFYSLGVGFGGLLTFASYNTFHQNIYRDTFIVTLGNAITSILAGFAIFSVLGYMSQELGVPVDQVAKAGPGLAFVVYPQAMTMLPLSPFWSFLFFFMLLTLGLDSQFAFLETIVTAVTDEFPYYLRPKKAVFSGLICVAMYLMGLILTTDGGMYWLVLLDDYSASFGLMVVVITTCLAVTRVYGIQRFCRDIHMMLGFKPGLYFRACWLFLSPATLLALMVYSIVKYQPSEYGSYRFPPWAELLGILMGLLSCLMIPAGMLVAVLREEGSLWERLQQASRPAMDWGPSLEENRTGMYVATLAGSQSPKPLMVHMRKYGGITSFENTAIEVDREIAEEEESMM

[3] = test system: Bovine viral diarrhea virus 1; experiment: Antiviral activity against Bovine viral diarrhea virus 1 infected in MDBK cells assessed as reduction in viral replication; assay type: functional, organism-based; conditions: Bovine viral diarrhea virus isolates and strains
[4] = biological target: Vascular endothelial growth factor receptor 2 (Homo sapiens, UniProt P35968); experiment: Inhibition of VEGFR-2 (unknown origin)
Chain of Vascular endothelial growth factor receptor 2 (P35968 whole entry): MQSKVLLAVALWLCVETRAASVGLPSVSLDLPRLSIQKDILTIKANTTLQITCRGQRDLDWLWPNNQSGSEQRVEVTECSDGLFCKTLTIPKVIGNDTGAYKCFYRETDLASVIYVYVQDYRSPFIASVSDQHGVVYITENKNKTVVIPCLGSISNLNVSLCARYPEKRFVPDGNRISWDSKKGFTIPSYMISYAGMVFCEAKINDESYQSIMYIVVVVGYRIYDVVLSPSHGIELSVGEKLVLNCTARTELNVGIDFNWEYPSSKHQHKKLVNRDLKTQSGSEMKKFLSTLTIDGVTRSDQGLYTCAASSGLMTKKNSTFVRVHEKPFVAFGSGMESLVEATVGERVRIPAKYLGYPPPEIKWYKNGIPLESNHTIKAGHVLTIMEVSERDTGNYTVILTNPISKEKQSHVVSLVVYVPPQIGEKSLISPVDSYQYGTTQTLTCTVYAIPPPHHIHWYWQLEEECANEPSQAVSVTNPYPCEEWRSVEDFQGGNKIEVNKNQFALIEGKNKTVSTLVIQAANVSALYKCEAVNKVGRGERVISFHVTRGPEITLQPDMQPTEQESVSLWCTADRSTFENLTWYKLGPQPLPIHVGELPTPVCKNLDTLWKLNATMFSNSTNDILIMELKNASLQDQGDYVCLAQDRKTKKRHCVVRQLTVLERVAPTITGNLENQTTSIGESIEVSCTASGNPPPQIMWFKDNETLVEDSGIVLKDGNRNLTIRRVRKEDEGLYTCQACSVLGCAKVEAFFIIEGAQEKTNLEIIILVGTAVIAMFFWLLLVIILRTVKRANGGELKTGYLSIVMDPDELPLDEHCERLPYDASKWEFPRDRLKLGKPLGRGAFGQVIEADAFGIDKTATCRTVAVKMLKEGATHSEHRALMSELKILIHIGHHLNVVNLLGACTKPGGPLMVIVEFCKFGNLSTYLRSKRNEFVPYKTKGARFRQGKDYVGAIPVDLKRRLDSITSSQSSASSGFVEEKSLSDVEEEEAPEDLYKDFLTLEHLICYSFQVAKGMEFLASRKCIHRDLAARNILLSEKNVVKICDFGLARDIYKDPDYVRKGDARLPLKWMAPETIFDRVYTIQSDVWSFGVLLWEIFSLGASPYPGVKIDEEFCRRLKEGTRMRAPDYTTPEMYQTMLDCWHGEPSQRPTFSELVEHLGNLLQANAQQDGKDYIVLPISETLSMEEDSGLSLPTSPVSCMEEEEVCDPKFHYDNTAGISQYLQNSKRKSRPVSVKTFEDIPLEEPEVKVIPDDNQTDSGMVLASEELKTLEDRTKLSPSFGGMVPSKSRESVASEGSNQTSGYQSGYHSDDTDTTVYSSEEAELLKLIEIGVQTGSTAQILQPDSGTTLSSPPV

Chain of Epidermal growth factor receptor (P00533 whole entry): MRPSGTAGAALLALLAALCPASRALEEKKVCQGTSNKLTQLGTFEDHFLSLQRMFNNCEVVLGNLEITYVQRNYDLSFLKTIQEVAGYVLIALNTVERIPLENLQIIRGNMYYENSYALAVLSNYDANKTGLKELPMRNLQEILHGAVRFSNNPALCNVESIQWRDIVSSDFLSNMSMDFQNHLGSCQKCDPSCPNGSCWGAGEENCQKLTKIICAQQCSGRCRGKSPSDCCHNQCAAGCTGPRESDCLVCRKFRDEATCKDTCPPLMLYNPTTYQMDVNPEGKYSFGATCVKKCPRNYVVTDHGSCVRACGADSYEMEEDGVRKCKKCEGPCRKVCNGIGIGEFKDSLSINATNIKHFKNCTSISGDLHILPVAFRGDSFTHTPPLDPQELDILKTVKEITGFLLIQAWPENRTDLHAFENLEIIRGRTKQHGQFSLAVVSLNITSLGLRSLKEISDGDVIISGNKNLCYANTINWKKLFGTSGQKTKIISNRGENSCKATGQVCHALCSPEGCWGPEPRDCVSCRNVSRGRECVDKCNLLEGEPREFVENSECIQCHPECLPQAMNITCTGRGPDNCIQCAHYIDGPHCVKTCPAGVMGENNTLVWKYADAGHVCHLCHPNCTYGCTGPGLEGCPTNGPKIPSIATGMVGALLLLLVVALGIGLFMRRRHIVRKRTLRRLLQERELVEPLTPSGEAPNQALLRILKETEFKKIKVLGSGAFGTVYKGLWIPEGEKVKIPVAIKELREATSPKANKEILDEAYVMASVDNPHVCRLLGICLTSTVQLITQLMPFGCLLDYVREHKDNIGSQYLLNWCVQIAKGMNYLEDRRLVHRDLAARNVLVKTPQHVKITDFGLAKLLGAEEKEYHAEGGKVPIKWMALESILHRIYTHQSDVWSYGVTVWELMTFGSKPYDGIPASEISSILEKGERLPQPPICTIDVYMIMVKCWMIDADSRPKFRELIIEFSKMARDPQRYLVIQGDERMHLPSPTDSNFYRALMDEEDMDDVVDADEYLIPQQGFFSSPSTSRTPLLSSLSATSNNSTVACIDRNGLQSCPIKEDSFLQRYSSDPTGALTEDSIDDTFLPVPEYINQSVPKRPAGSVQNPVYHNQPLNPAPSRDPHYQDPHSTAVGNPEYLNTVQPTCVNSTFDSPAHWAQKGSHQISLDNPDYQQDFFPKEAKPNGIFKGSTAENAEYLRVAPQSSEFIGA

CC1=NNC2Oc3ncn(N)c(=N)c3C(c3ccccc3Br)C12 (stereo unspecified)
IC50 [1]: 60 nM

COc1cc(/C=N/NC(=O)COc2nc(C)nc3c2c(C)nn3-c2ccccc2)cc(OC)c1OC
IC50 (HT-29): 5360 nM

CCCCC[C@H]1CCCN1C(=O)c1nn(C(C)(C)C)c2nc(NC(=O)c3ccc(C)cc3)sc12
inhibition [2]: 50%

Cc1nn(-c2ccc(Cl)cc2)c2c1C(=O)N(c1ccccc1)C2
EC50 [3]: 120 nM

CC1=NNC2OC(NS(=O)(=O)c3ccc(C)cc3)=C(C#N)C(c3ccccc3Br)C12 (stereo unspecified)
IC50 [4]: 220 nM

NC(=O)c1ncn([C@@H]2O[C@H](CO)[C@@H](O)[C@H]2O)n1 [RIBAVIRIN]
EC50 [3]: 1300 nM
